Measured values reported in patent US20090311246A1, “Method of Enhancing Remyelination in Demyelinating Diseases of the Central Nervous System” (priority 2008, published 2009).
“Also recorded” adds a separate entry of the source.

How the values were obtained:
[1] = test system: B6 mice with EAE; experiment: Antibody responses (ELISA) of E2 137-151 peptide treated EAE mice; type: in vivo
Description: FIG. 7 Comparison of antibody responses (±SEM) of EAE, E2-137-151 peptide treated, and untreated EAE mice to E2-137-151, MOG 35-55 and control peptides. Three experiments were performed with total number of 21 EAE and 22 treated EAE. All mice were immunized subcutaneously with myelin oligodendrocyte glycoprotein (MOG) peptide, 35-55 in CFA, as described above, on D0. EAE mice were treated as described for FIG. 6. All mice were sacrificed at the end of experiment on D39 post immunization.
To measure the antibody response of both WT and γδ KO mice against SFV and two of the peptides of the SFV envelope protein, E2, an indirect ELISA was performed. Sera were pooled from 4-6 SFV-infected WT, and 3 KO, mice on days 0, 7, 14, 21 and 35 pi. Briefly, Immunolon 2HB 96 well microtiter plates (VWR, Bridge Port, N.J.) were coated with 1 μg/well of each antigen in 100 μl/well carbonate buffer overnight at room temperature. After washing, the plates were blocked and serum samples were added. […] After washing, biotinylated goat anti-mouse Igs (BD Pharmingen, Torreyana, Calif.), Strepavidin conjugated to Horse Radish Peroxidase (Vector Laboratories, Burlingame, Calif.), and OPD substrate (Sigma, St. Louis, Mo.) were used, as previously described (4, 9). […] Values were considered to be positive when they were >0.3 OD units and exceeded the mean value plus three standard deviations for antibody response on day 0 pi of mice of the same strain.
Antibody Responses of RAE and E2 137-151 treated EAE mice to E2-137 and control peptide (E2 115-129) were measured by ELISA at the end of experiment on D39 pi.

[2] = test system: SFV-infected TCR γδ-KO and WT mice; experiment: Clinical scores of SFV-infected, E2 137-151 immunized TCR γδ-KO and WT mice; type: in vivo; conditions: 0.5 mg/injection (25 mg/kg) sc in IFA, scale 0-VI
Description: FIG. 5 Comparison of Clinical Scores (±SEM) of SFV-infected E2 137-151 peptide-immunized, and non-immunized TCR γδ-KO and WT mice, on different days post infection. Data shown is the average of two experiments with a total of 15 WT, 15 KO mice, and 10 immunized KO mice (only 5-10 KO mice could be obtained at each time point). SFV-infected KO mice were immunized subcutaneously with E2 137-151 (0.5 mg/injection or 25 mg/kg, based on the average weight of 20 g/mouse) in IFA, one day after SFV-infection. Additional inoculations of E2 137-151/IFA were performed on days 5, 15, and 20. Mice were sacrificed on days 7, 15, 21, and 35 pi. Clinical scores of sacrificed and dead animals have been considered in average calculation until the end of experiments on day 35. […] Data from E2-137-immunized WT mice is not shown (p=NS).
Method—Five-week old C57B16 (B6) WT and KO mice (Jackson Laboratories, Bar Harbor, Mass.) were infected with SFV, and KO mice were immunized subcutaneously with E2-137-151 (0.5 mg/injection or 25 mg/kg, based on the average weight of 20 g/mouse) in IFA, one day after SFV-infection. Additional inoculations of E2 137-151/IFA were performed on days 5 and 15 for KO mice only. Animals were observed daily for clinical manifestations of disease and were scored on a scale of 0-VI. 0=no abnormality; I-mild hind limb weakness (some difficulty righting themselves when turned on their back); II=moderate hind limb weakness, sometimes associated with floppy tail; III=weakness of hind limbs accompanied by some forelimb weakness, sometimes more marked on one limb or one side, but not complete paralysis; IV=hind limb paresis accompanied by mild forelimb weakness; V=paralysis of hind limbs, associated with moderate forelimb weakness; and VI=quadriplegia, moribund.

[3] = test system: B6 mice with EAE; experiment: Clinical scores of E2 137-151 peptide-treated mice with MOG 35-55 induced EAE; type: in vivo; conditions: for Disease severity, treatment from D12 post-EAE induction, compared with untreated EAE mice: 0.5 mg/injection sc in IFA on D12, 17, 22, peak D19
Description: FIG. 6 Comparison of Average Clinical Scores (±SEM) of E2 137-151 peptide-treated, and untreated B6 mice with EAE, on different days post treatment. Data shown is the average of three experiments, total numbers of mice were 21 EAE and 22 treated EAE mice. All mice were immunized subcutaneously with myelin oligodendrocyte glycoprotein (MOG) peptide 35-55 in CFA, on D0. Treated EAE mice received subcutaneous injection of E2-137 peptide (0.5 mg/injection or 25 mg/kg, based on the average weight of 20 g/mouse) in IFA, on day 12 post EAE induction. Additional inoculations of E2-137 peptide/IFA were performed twice more with 5-day intervals. Following the injection, animals were observed daily for clinical manifestations of disease and were scored on a scale of 0-VI, as above. Clinical scores of sacrificed and dead animals have been considered in average calculation till the end of the experiments on day 39.
Method—To induce EAE, fourteen 7-8 wk old B6 mice (Jackson Laboratories, Bar Harbor, Mass.) were each inoculated, subcutaneously, with […] MOG 35-55 in Complete Freund's Adjuvant (CFA) or CFA only (as control), followed by two injections of 100 ng of pertusis toxin, 48 hours apart (9, 73). Eight mice in EAE-induced group were immunized subcutaneously with E2-137-151 (0.5 mg/injection or 25 mg/kg, based on the average weight of 20 g/mouse) in IFA, one day after MOG inoculation. One additional inoculation of E2 137-151/IFA was performed 5 days later. Animals were observed daily for clinical manifestations of disease and were scored on a scale of 0-VI. 0=no abnormality; I=mild hind limb weakness (some difficulty righting themselves when turned on their back); II=moderate hind limb weakness, sometimes associated with floppy tail; III=weakness of hind limbs accompanied by some forelimb weakness, sometimes more marked on one limb or one side, but not complete paralysis; IV=hind limb paresis accompanied by mild forelimb weakness; V=paralysis of hind limbs, associated with moderate forelimb weakness; and VI-quadriplegia, moribund.
Result—Mice were immunized with MOG 35-55 in CFA, to induce EAE as described above. In the first two experiments, mice were divided into two groups, untreated, and treated after EAE induction. The treated EAE group received E2-137-151 peptide in IFA, subcutaneously on D5 post-EAE induction, before the signs of clinical disease were apparent.
Next, three experiments were performed with a total number of 21 RAE and 22 late treated EAE mice. […] EAE mice were further treated with E2-137-151 peptide on days 17 and 22 post-EAE induction. […] Peak of the disease in both RAE and D12 treated EAR mice were on D19 pi.

[4] = test system: B6 mice; conditions: unpublished data

`CC[C@H](C)[C@H](NC(=O)[C@H](CCC(=O)O)NC(=O)[C@H](CCCCN)NC(=O)CNC(=O)[C@H](Cc1ccc(O)cc1)NC(=O)[C@H](Cc1c[nH]cn1)NC(=O)[C@@H]1CCCN1C(=O)[C@H](CCCNC(=N)N)NC(=O)[C@@H](NC(=O)[C@@H](NC(=O)[C@H](Cc1ccccc1)NC(=O)[C@H](CCCCN)NC(=O)[C@H](CCC(=O)O)NC(=O)[C@H](CCCNC(=N)N)NC(=O)CN)[C@@H](C)O)[C@@H](C)CC)C(=O)O` [E2 137-151] was tested, and the “Antibody response to E2-137, treated compared with untreated EAE mice” value ([1]; ELISA, D39 pi) was “significantly higher than untreated EAE mice”, the “Antibody responses to MOG 35-55 and control peptide, treated compared with untreated EAE mice” value ([1]; ELISA, D39 pi) was “no significant difference” and the “Antibody response to E2-137, treated compared with untreated EAE mice” value ([1]; ELISA, D39 pi, listed as E2-137 peptide) was “treated>untreated EAE mice”. For the same compound, the “Reactivity of sera from treated EAE mice with MBP 54-68” value ([1]; preliminary experiments) was “also reacted with MBP 54-68”, the “Average clinical score / severity of disease, immunized KO compared with non-immunized KO mice” value ([2]; listed as E2 137-151 peptide, 25 mg/kg) was “significantly suppressed” and the “Average clinical score / severity of disease, immunized KO compared with non-immunized KO mice” value ([2]; listed as E2-137, 25 mg/kg) was “nonimmunized <E2-137 immunized KO mice”. The “Average clinical score / severity of disease, immunized KO compared with non-immunized KO mice” value ([2]; listed as E2-137-151, 25 mg/kg) was “decreased significantly”, the “Disease severity, treatment from D12 post-EAE induction, compared with untreated EAE mice” value [3] was “significantly less severe disease on peak day” and the “Disease severity, treatment from D12 post-EAE induction, compared with untreated EAE mice” value ([3]; listed as E2 137-151 peptide) was “significantly suppressed the clinical disease; also recorded: improved clinical EAE”. The “Disease severity, treatment from D12 post-EAE induction, compared with untreated EAE mice” value ([3]; listed as E2-137 peptide) was “Average disease severity in EAE mice was significantly higher than treated EAE mice”, the “Clinical disease score at the peak of the disease on D19” value ([3]; 19 treated EAE mice (of 22), scale 0-VI) was less than 1.5 and the “Clinical signs of EAE, treatment on D5 post-EAE induction” value ([3]; E2-137-151 peptide in IFA sc before clinical signs) was “absence of clinical signs of EAE”. For the same compound, the “Histopathology after inoculation with the peptide” value [4] was “did not cause histopathology”.
